# Publication PMC12040169 (PLOS Biology, 2025)
# Assay: in vitro
# Details: human, hela cells, % viability
row,Compound,"viability at 28.5 h, 10 µM [%]"
1,COCCCN1C(=O)C(O)=C(C(=O)c2ccc(C)o2)C1c1ccc(Br)cc1 (stereo not shown) [CBK264876],90.9
2,Cc1ccc([N+](=O)[O-])cc1NC(=O)CSc1nnc(-c2ccco2)o1 [CBK268378],117
3,O=C(COc1cccc(Br)c1)Nc1nnc[nH]1 [CBK264063],94.1
4,CS(=O)(=O)NC1CCN(CCc2ccc(F)c(F)c2)C1 (stereo not shown) [CBK305078],95.3
5,CC(C)(C)c1ccc(-c2cc3ncccc3nc2O)cc1 [CBK081302],97.1
6,O=C(O)CC1NC(=O)C(Cc2ccccc2)NC1=O (stereo not shown) [CBK286827],98.1
7,Cc1ccc(C(=O)CCC(=O)N2CCCC2c2ccc(F)cc2)cc1 (stereo not shown) [CBK297885],96.2
8,COc1ccc(O[C@@H]2CCCC[C@@H]2N2CCCCC2)cc1 [CBK015661C],90.6
9,Cc1cc(CNS(=O)(=O)c2c(C)noc2C)no1 [CBK062261],91.4
10,CCn1cc(NC(=O)C(CC)(CC)CN)ccc1=O [CBK304320C],89.2
11,O=C(CCn1c(-c2ccccc2)c(-c2ccccc2)c2ccccc21)N/N=C/c1ccccc1O [CBK262353],66.9
12,O=C(Cn1ccc(=O)[nH]c1=O)NCc1ccc(OCC(F)(F)F)cc1 [CBK305041],109
13,COC(=O)c1ccc2cccnc2c1O [CBK017876],90.9
14,COc1ccccc1N(CC(O)CN1C(C)CCCC1C)S(=O)(=O)c1ccccc1 (stereo not shown) [CBK265585],94.4
15,O=C(O)c1nccnc1C(=O)N1CCC(O)(c2ccc(Cl)cc2)CC1 [CBK286621],87.6
16,N#Cc1nc(COc2ccc(Br)cc2)oc1NC1CC1 [CBK266470],94.6
17,Cn1c(=O)n(C)c2cc(-c3nc4ccccc4c(=O)[nH]3)ccc21 [CBK287887],98.5
18,Cc1[nH]nc(Nc2cccc(C(=O)O)c2)c1[N+](=O)[O-] [CBK262725],96.2
19,CN(C)C(=O)c1ccc(-c2ccc(OC3CCN(C(=O)CC(C)(C)c4ccccc4)CC3)nc2)cc1 [CBK155047],101
20,CCC(C(=O)Nc1sc2c(c1C(N)=O)CCCCCC2)c1ccccc1 (stereo not shown) [CBK265383],85.8
21,CN(C)C(=O)CCCN1C(=O)CC2(C1=O)C(=O)N(C)c1ccc(F)cc12 (stereo not shown) [CBK075380],103
22,Clc1ccc(COc2cccc3c2CCCC3)cn1 [CBK002634],102

row,Compound,"viability at 28.5 h, 10 µM [%]"
1,CC(C)c1c(SCCN)[nH]c2ccccc12 [CBK017265C],96
2,Cc1ccc(C(=O)NC2CCCCC2)c(N2CCOCC2)n1 [CBK076388],96.5
3,Cc1ccc(S(=O)(=O)NCCSCc2ccc(Cl)cc2)cc1[N+](=O)[O-] [CBK264056],104
4,O=C(NC(c1ccccc1)c1ccco1)C1CCN(C(=O)c2cccs2)CC1 (stereo not shown) [CBK059854],82.4
5,Nc1ncnc2c1cnn2[C@H]1C[C@@H](O)[C@@H](CO)O1 [CBK201325],98
6,O=C1CC(C(=O)NCc2ccc(-c3csnn3)cc2)c2ccccc21 (stereo not shown) [CBK149301],93.1
7,Cc1cc(C)n(CC2(CNC(=O)C(c3ccccc3F)N(C)C)CC2)n1 (stereo not shown) [CBK306920],97.2
8,O=C(CN(c1cc(C(F)(F)F)ccc1Cl)S(=O)(=O)c1ccccc1)NCc1cccnc1 [CBK264607],94.4
9,O=C(Nc1nnc(SCc2cc(=O)n3nc[nH]c3n2)s1)c1ccc(F)cc1 [CBK294399],90.2
10,Cn1c(SCC(=O)NC(c2ccccc2)c2ccccc2)nnc1-c1ccncc1 [CBK266622],97.8
11,CCOc1cc(OCC)cc(C(=O)N2CCC3(CC2)CC(=O)c2ccc(N)cc2O3)c1 [CBK168018],111
12,Cc1ccc(NC(=O)c2cc([N+](=O)[O-])ccc2NCCN2C(=O)c3ccccc3C2=O)cc1 [CBK267159],87.5
13,COc1cc(-c2nccnc2N[C@@H](CO)C(C)C)cc(OC)c1OC [CBK038023],111
14,Cc1nc2c(cc(OCC(O)COc3ccc(C#N)cc3)c3ccsc32)s1 (stereo not shown) [CBK296632],84.6
15,CC(C)=NNC(=O)CN(c1ccc(C)cc1)S(=O)(=O)c1ccccc1 [CBK262280],99.4
16,O=C(NN=Cc1ccc(O)cc1)c1cc[n+](Cc2ccccc2)cc1 [CBK262047C],87.3
17,CCOC(=O)c1ccc(-c2ccc(/C=N/N=C3\NC(=O)C(CC(=O)O)S3)o2)cc1 (stereo not shown) [CBK264474],108
18,O=C(COc1cc(Cl)c(Cl)cc1Cl)N1CCN(c2ccc([N+](=O)[O-])cc2)CC1 [CBK263783],97.1
19,O=S(=O)(Nc1ccc(N2CCCCC2)cc1)c1cccc2cccnc12 [CBK263077],93.1
20,CC(C)c1ccc(NS(=O)(=O)c2cc3c(N4CCNCC4)nccc3s2)cc1 [CBK038104C],91.4
21,O=C(NC(Cc1ccc(O)cc1)C(=O)O)c1ccccc1 (stereo not shown) [CBK260937],88.4
22,FC(F)(F)c1ccnc(Sc2cccs2)n1 [CBK115245],87.7

row,Compound,"viability at 28.5 h, 10 µM [%]"
1,COc1cccc2c1OC(c1cccnc1)N1N=C(c3cccc(O)c3)CC21 (stereo not shown) [CBK287747],104
2,Cc1ccc(C(=O)Nc2ccc(C)nc2C)cn1 [CBK200289],89.6
3,CC1CCN(c2nc3nonc3nc2Nc2ccc3c(c2)OCO3)CC1 [CBK077551],98.8
4,COc1ccc(Cl)cc1N1CCN(Cc2ccc(OC(F)(F)F)cc2)CC1 [CBK126405],104
5,Cc1ccc(CNC(=O)C2CCN(S(=O)(=O)N3CCOCC3)CC2)cc1 [CBK294467],103
6,COc1ccccc1-c1ccc(NC(=O)CCc2ccc3c(c2)n(C)c(=O)n3C)cc1 [CBK286527],93.1
7,CSc1ncnc2c1CC=N2 [CBK007532],96.4
8,COCC1CCCN1C(=O)c1cnn2c(C)c(Cc3cccc(C#N)c3)c(C)nc12 (stereo not shown) [CBK162099],99.6
9,O=C(CC1(C(F)(F)F)NCCN1)c1cccc([N+](=O)[O-])c1 [CBK263443],83.1
10,COc1cccc(CNC(C)(C)CO)c1OCc1ccc(Cl)cc1 [CBK266552C],102
11,Cc1nn(-c2nc3ccccc3s2)c(O)c1C1OC(=O)c2ccccc21 (stereo not shown) [CBK267220],95
12,CC(C)CC(NC(=O)c1ccco1)c1nc2cccnc2n1C (stereo not shown) [CBK283827],88.8
13,CCn1c2cc(C)sc2c2cnn(CC(=O)NC3CC3)c(=O)c21 [CBK284170],89.3
14,CCOC(=O)c1c(NC(=O)CSc2nnnn2C)sc(C)c1C [CBK268798],103
15,Cc1cc(C)n(CC(=O)N2CCC(Nc3cccnn3)CC2)n1 [CBK306234],106
16,O=C(O)COc1ccc(N2C(=O)c3ccc(Oc4cccc([N+](=O)[O-])c4)cc3C2=O)cc1 [CBK264259],107
17,Cc1ccc(-n2c(C)cc(C(=O)CSc3n[nH]c(=O)n3C3CC3)c2C)cc1C [CBK296764],92.3
18,CCN(Cc1ccncc1)C(=O)Nc1cccnc1 [CBK145053],111
19,COc1ccccc1N1CCN(CC(=O)Nc2cc(Cl)ccc2C)CC1 [CBK270087],105
20,COc1ccccc1C(CNC(=O)Nc1cc(C)on1)N(C)C (stereo not shown) [CBK305028],97.8
21,CC(C)(CN)CN(Cc1ccncc1)C(=O)Nc1ccc(C(C)(C)C)cc1 [CBK002459C],82
22,O=C(O)c1cccc(S(=O)(=O)N(CCO)CCO)c1 [CBK263221],93.2

row,Compound,"viability at 28.5 h, 10 µM [%]"
1,CN(C)CCCNC(=O)c1cccc(S(=O)(=O)N2CCCCC2)c1 [CBK304314C],91.6
2,CCC(c1c(O)c2ccccc2oc1=O)c1cccc2ccccc12 (stereo not shown) [CBK016684],102
3,O=[N+]([O-])c1ccc(CN2CCN(Cc3cccnc3)CC2)cc1 [CBK263161],109
4,CCCC(=O)N1CCCC([C@@H]2C[C@H](C(F)F)n3nc(C)cc3N2)C1 (stereo partly shown) [CBK284721],93.2
5,CC(=O)Nc1cccc(C(=O)N(Cc2ccccc2)Cc2ccccc2)c1 [CBK269295],91.6
6,COc1cccc(-c2cc(C(=O)Nc3nnn[nH]3)c3ccccc3n2)c1 [CBK262640],98.6
7,O=C(Nc1cccc(N2CCNCC2)c1)c1ccccc1 [CBK028255T],114
8,CCOC(=O)N(C)c1c(CC)nc2ccc(C(=O)Nc3cc(-c4ccccc4)ccc3OC)cn12 [CBK145478],89.6
9,CCOC(=O)C1=C(C)N(c2ccc(C(=O)O)cc2)C(=O)NC1c1ccc(OC(F)F)c(OC)c1 (stereo not shown) [CBK297878],90.1
10,Cc1ccc(OCCSc2nc3ccccc3n2CC(=O)O)c(C(C)C)c1 [CBK300483],105
11,Cc1ccccc1OCc1nn2c(C)nnc2s1 [CBK269220],100
12,C=CCNC(=O)N[C@H]1[C@H](O)[C@@H](Oc2ccccc2)[C@@H]2OC[C@H]1O2 [CBK288812],90.5
13,O=C(c1ccccc1)N1CCCCC1 [CBK012821],99.1
14,O=[N+]([O-])c1ccc2c(ccn2C2CC(O)C(CO)O2)c1 (stereo not shown) [CBK201163],95
15,Cc1ccc(N(CC(O)CN2C(=O)NC(C)(C)C2=O)S(=O)(=O)c2ccccc2)cc1 (stereo not shown) [CBK263580],99.2
16,O=c1[nH]c2c(cc1CNc1cccc(O)c1)c(-c1cccc(F)c1)nn2-c1ccccc1 [CBK286463],93
17,O=C(CN1C(=O)c2ccccc2C1=O)Nc1nc(-c2ccccc2)cs1 [CBK287343],106
18,CCOC(=O)c1cnc2ccc(C(CCOCc3ccccc3)OCc3ccccc3)cc2c1O (stereo not shown) [CBK018405],93.8
19,CN(C)c1cccc(COc2cncc(N3CCNCC3)n2)c1 [CBK200004],82.1
20,Cc1cc(C(=O)CSc2nc3cc(Cl)cnc3[nH]2)c(C)n1C1CC1 [CBK305867],79.5
21,O=c1cc(O)c2ccccc2n1Cc1ccccc1Cl [CBK291255],93.4

# Same assay, conditions: human, hela cells, % viability, bulk resorufin, single well
row,Compound,"viability at 28.5 h, 10 µM [%]"
1,O=C1NC(=S)N(c2ccccc2F)C(=O)/C1=C/NCc1ccco1 [CBK265126],86.6
